# Values quoted from earlier work as cited in patent US20220378756A1, “ACTIVATING PYRUVATE KINASE R” (FORMA Therapeutics, Inc., priority 2019, published 2022).
# Like-named read-outs stand apart in the source and are kept apart here.
# Assays:
# aromatase = target: T1, aromatase (Homo sapiens, UniProt P11511); conditions: Yang et al. 2018; Grace et al. 2019; cited from earlier work
# T1 sequence (P11511 1-503): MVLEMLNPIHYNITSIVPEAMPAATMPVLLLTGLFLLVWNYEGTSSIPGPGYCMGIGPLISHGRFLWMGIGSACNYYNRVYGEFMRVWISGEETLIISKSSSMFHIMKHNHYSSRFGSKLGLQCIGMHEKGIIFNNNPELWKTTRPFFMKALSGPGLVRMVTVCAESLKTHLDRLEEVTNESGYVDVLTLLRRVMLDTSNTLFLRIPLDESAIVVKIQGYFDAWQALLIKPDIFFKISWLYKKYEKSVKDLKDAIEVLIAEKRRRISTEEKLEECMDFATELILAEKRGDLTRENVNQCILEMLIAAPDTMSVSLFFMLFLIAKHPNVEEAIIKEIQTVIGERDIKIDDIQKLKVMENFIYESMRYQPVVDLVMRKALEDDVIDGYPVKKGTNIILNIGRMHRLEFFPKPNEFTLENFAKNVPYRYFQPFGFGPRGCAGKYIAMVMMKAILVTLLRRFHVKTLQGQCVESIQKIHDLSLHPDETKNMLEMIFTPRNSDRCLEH
# [1] = cited from earlier work
Structure (SMILES),aromatase inhibition (aromatase),"AUC increase with high-fat, high-calorie meal vs fasted ([1]; plasma) [%]","Cmax increase with high-fat, high-calorie meal vs fasted ([1]; plasma) [%]",steady state AUC higher in HbSC vs HbSS genotype patients ([1]; plasma) [%],steady state Cmax higher in HbSC vs HbSS genotype patients ([1]; plasma) [%],"AUC increase with high-fat, high-calorie meal vs fasted ([1]; whole blood) [%]","Cmax increase with high-fat, high-calorie meal vs fasted ([1]; whole blood) [%]",steady state AUC higher in HbSC (n=11) vs HbSS (n=220) genotype patients ([1]; whole blood) [%],steady state Cmax higher in HbSC (n=11) vs HbSS (n=220) genotype patients ([1]; whole blood) [%]
O=C(c1ccc(NS(=O)(=O)c2cccc3cccnc23)cc1)N1CCN(CC2CC2)CC1 [AG-348],Aromatase inhibition has been observed,,,,,,,,
"CC(C)n1nccc1-c1ncccc1COc1cccc(O)c1C=O [voxelotor, 2-hydroxy-6-((2-(1-isopropyl-1H-pyrazol-5-yl)pyridin-3-yl)methoxy)benzaldehyde]",,42,95,23,15,42,45,50,45
